Assay results: paper PMC6968641, “N-monoarylacetothioureas as potent urease inhibitors: synthesis, SAR, and biological evaluation” (Journal of Enzyme Inhibition and Medicinal Chemistry, 2019)
≈ marks a conversion by molar mass, not a printed value. Where two headings read alike, the source gives them in different places.

Key:
[1] = molecular target: T1, H. pylori urease (Helicobacter pylori, UniProt P69996); assay: Urease inhibition, extracted H. pylori urease (indophenol method); type: biochemical; details: for IC50: extracted H. pylori urease
T1 construct: endogenous in cells; host or cells: H. pylori ATCC 43504; sonicated, supernatant desalted on Sephadex G-25 (crude extract)
Method: For urease inhibition assays, 50 mL broth cultures (2.0 × 10^8 CFU/mL) were centrifuged (5000×g, 4 °C) to collect the bacteria, and after washing twice with phosphate-buffered saline (pH 7.4), the H. pylori precipitation was stored at –80 °C for 8 h, and then was returned to room temperature, and after addition of 3 mL of distilled water and protease inhibitors, sonication was performed for 60 s. Following centrifugation (15,000×g, 4 °C), the supernatant was desalted through Sephadex G-25 column (PD-10 columns, Amersham Pharmacia Biotech, Uppsala, Sweden). The resultant crude urease solution was added to an equal volume of glycerol and stored at 4 °C until use in the experiment.
Urease activity was determined in the 96-well assay plate by measuring ammonia production using the indophenol method as described by Weatherburn[20]. Briefly, to each well, 50 µL of urea (10 mM) in phosphate buffer solution was added in a mixture of 25 µL (10 U) of H. pylori urease and 25 µL of the test compound, which was incubated at 37 °C for 0.5 h. Fifty µL of phenol reagent (containing 127 mM phenol and 0.168 mM sodium nitroprusside) and 50 µL of alkali reagent (containing 125 mM NaOH and 0.168 mM NaOCl) were added in turn. The resulted mixture was incubated at 37 °C for another 0.5 h for colouration developing. The increasing absorbance was measured at 630 nm after 50 min using a microplate reader (Molecular Devices, San Jose, CA). Percentage inhibitions were calculated from the following formula (Equation (1)). Experiments were performed in triplicate and AHA was used as reference drug, and the IC50 value was determined as the concentration of compound that give 50% inhibition of maximal activity. As for the urease assay of intact cells, 25 µL (10 U) of H. pylori urease was replaced by 25 µL of cell suspension (4.0 × 10^7 CFU/mL).

[2] = molecular target: T2, urease in intact H. pylori cell (Helicobacter pylori, UniProt P69996); assay: Urease inhibition in intact H. pylori cell (indophenol method); type: cell-based
T2 construct: H. pylori urease was replaced by 25 µL of cell suspension (4.0 × 10^7 CFU/mL); endogenous in cells; host or cells: intact H. pylori ATCC 43504 cells

[3] = molecular target: T3, Jack bean urease (Canavalia ensiformis, UniProt P07374); assay: Ligand affinity by surface plasmon resonance (SPR); type: binding; details: for kon: pH 7.4; for koff: immobilised urease, PBS pH 7.4
T3 construct: purchased
Method: The binding kinetics of selected compounds were assayed via surface plasmon resonance (SPR) using an OPEN SPR instrument (Nicoya Lifesciences, Kitchener, Canada). First, urease dissolved (50 µg/mL) in PBS buffer (1 mM KH2PO4, 155 mM NaCl, 3 mM Na2HPO4-12H2O, pH 7.4), was immobilised to a CM5 chip using a standard amine coupling procedure. Then, SPR measurements were carried out in PBS, and stock solutions were diluted in the same buffer. Data were collected with OpenSPR control software. Experiments were performed by monitoring the refractive index changes as a function of time under constant flow rate of 20 µL/min. The relative amount of inhibitor bound to the urease was determined by measuring the net increase in refractive index over time compared to control running buffer. There is an inline subtraction of reference surface during the run. This change is usually reported in response units (RU). Sensograms were processed and analysed using TraceDrawer software. The binding curves were fit to determine the equilibrium dissociation constant (KD).
In the present paper, the pure Jack bean urease from commercial was used for this assay because of non-availability of pure H. pylori urease. […] For efficient and tight ligand binding, the rate constant koff is of particular interest, because koff has a potential to differentiate indistinguishable compounds with similar affinities.

[4] = molecular target: T3, Jack bean urease; assay: Enzyme kinetic study (indophenol method); type: biochemical; details: for Type of inhibition: Jack bean urease; for Ki': dissociation constant of urease-urea-inhibitor complex
Method: Based on the indophenol method, the velocity of ammonia production (V) was measured in the presence of concentration gradients of urea ([S]) for every specific concentration of selected compounds ([I]). Nonlinear fitting curves to data of V and [S] were used to determine the type of enzyme inhibition based on the general kinetics equation (Equation (1)). Subsequently, the resulted fitting constants ( Km/Vmax(1+[I]/Ki) or 1/Vmax(1+[I]/Ki′) ) and [I] were linearly fitted to give kinetic parameters Ki and Ki', respectively. The experimental assay was performed against a pure urease (Jack bean urease) for the consideration of precision. (1) V=Vmax[S]/Km(1+[I]/Ki)+(1+[I]/K^′i)[S]
Mazzei et al. confirmed that urease shared the mechanism of catalysis and inhibition regardless of the biological sources[27]^,[28]. For excluding the possible interference, a pure urease (Jack bean urease) was therefore used for kinetic assays. As an example, Figure 2 describes the preincubation-time dependence of urease inhibition by b19. The suppressed urease activity maintained at relatively constant values with the increasing preincubation time under different concentrations of b19, resulting in nearly equal IC50 values.
Similarly, kinetic parameters ( Ki and Ki' ) and inhibition types of other compounds were also determined and are shown in Table 3.

[5] = Cytotoxicity MTT assay, L-02; type: cell-based; details: human, L-02 cells (normal hepatic cell line), 25 μg/mL
Method: (§1) The stock solutions of the selected compounds (250 µg/mL, in PBS) were prepared in medium. L-02 cells and P69 cells were grown in medium (90% RPMI-1640 medium, 10% foetal bovine serum, 1% penicillin/streptomycin) and maintained at 37 °C in a humidified atmosphere containing 5% CO2, respectively. Cells were seeded in 96-well cell culture plates. On the day when seeding, the cells were exposed to 250 µg/mL of compounds and further cultured for 72 h at 37 °C. Cell proliferation was then determined using the thiazolyl blue tetrazolium bromide (MTT) assay.

[6] = Cytotoxicity MTT assay, P69; type: cell-based; details: human, P69 cells (normal prostate cell line), 25 μg/mL
Method: as §1

[7] = test system: H. pylori; assay: Minimum inhibitory concentration, broth microdilution (CLSI); type: cell-based, Helicobacter pylori (ATCC 43504)
Method: H. pylori (ATCC 43504; […] The minimum inhibitory concentration (MIC) values were determined using the broth microdilution protocol according to the methods of the Clinical and Laboratory Standards Institute (CLSI)[21].

[8] = Helicobacter pylori, pH=4.0, read-out: MIC pH=4.0
[9] = Helicobacter pylori, pH=7.0, read-out: MIC pH=7.0

T2 sequence (P69996 whole entry): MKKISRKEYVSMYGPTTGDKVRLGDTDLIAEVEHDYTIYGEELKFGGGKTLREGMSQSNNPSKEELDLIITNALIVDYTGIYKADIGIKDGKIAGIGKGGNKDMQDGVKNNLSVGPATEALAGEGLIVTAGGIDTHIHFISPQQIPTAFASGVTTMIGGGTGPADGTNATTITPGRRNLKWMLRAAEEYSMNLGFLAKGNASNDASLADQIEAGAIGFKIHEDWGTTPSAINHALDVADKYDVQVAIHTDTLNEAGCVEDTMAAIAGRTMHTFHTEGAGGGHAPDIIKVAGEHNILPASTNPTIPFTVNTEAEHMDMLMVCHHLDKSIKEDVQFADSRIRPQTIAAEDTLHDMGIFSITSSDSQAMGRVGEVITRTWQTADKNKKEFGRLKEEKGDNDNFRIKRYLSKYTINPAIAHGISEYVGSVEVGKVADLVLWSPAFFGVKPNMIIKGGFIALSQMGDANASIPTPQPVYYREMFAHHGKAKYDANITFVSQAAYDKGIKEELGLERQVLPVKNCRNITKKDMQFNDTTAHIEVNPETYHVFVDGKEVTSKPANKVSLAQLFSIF
T2 sequence (P14916 whole entry, further chain): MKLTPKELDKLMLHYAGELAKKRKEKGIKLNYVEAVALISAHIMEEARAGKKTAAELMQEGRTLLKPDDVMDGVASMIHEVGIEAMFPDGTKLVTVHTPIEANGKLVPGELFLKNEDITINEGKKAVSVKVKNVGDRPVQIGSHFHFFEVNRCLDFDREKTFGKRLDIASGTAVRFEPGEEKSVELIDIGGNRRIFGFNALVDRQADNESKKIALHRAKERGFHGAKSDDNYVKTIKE
T1 sequence (P14916 whole entry): as the sequence (P14916 whole entry, further chain) above
T1 sequence (P69996 whole entry): as the sequence (P69996 whole entry) above
T3 sequence (P07374 whole entry, looked up): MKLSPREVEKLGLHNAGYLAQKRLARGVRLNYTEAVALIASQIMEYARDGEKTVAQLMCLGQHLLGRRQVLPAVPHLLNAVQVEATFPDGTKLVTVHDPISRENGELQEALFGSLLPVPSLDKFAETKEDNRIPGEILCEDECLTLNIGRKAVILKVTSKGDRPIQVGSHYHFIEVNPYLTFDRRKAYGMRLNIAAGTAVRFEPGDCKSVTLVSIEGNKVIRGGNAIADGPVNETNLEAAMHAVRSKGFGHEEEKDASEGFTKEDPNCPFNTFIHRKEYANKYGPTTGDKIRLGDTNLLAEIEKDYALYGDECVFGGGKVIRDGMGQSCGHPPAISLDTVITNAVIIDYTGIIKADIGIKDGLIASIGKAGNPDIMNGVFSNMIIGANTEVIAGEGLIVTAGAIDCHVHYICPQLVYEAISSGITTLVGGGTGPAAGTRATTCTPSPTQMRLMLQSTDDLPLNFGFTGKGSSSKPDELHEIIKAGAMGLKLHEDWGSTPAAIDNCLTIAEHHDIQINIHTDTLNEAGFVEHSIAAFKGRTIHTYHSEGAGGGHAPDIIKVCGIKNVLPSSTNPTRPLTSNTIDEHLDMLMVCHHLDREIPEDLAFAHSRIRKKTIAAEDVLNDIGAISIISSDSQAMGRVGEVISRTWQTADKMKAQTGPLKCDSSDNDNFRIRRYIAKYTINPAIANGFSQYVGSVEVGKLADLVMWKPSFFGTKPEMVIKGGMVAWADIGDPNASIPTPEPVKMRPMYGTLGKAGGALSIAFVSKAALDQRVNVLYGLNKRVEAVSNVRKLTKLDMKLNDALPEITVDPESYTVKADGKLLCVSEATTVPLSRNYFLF

Row | Structure (SMILES) | IC50 ([1]; IC50 Extracted urease) [µM] | melting point [°C] | other results
1 | NC(=S)NC(=O)Cc1ccc(-c2ccccc2)cc1 [b26] | 279 ± 16 | 187.3 to 189.6 | –
2 | NC(=S)NC(=O)Cc1ccc2ccccc2c1 [b24] | – | 202.6 to 204.4 | –
3 | NC(=S)NC(=O)Cc1ccc(Cl)cc1Cl [b21] | 67.7 ± 4.3 | 166.6 to 167.2 | –
4 | COc1ccccc1CC(=O)NC(N)=S [b17] | 55.7 ± 3.1 | 135.4 to 136.9 | –
5 | NC(=S)NC(=O)Cc1cccc(F)c1 [b14] | 50.3 ± 3.5 | 126 to 127.4 | –
6 | NC(=S)NC(=O)Cc1cccc(Br)c1 [b2] | 58.4 ± 4.3 | 207.4 to 208.8 | –
7 | NC(=S)NC(=O)Cc1ccc(O)c(O)c1 [b29] | 18.4 ± 1.6 | 153.5 to 155 | IC50 [2]: 143 ± 6 µM; Kd [3]: 0.783 ± 0.0213 µM; kon [3]: 19800 M⁻¹ s⁻¹; koff ([3]; pH 7.4, SPR): 0.0155 s⁻¹; Ki [4]: 8.21 µM; Type of inhibition [4]: Reversible; Ki' [4]: 21.5 µM
8 | COc1ccc(CC(=O)NC(N)=S)cc1OC [b10] | 24.2 ± 0.6 | 146.3 to 147.6 | IC50 [2]: 207 ± 16 µM; viability at 72 h, 25 µg/mL [5]: 108%; viability at 72 h, 25 µg/mL [6]: 95.3%
9 | NC(=S)NC(=O)Cc1cccc2ccccc12 [b27] | – | 195.5 to 197.9 | –
10 | NC(=S)NC(=O)Cc1ccc2c(c1)OCO2 [b28] | 98 ± 5 | 153.5 to 155 | –
11 | NC(=S)NC(=O)Cc1ccccc1Cl [b13] | 54.2 ± 4.8 | 148.8 to 151.2 | –
12 | NC(=S)NC(=O)Cc1ccc(O)cc1 [b8] | 9.93 ± 0.9 | 177.1 to 178.3 | IC50 [2]: 52.5 ± 3.9 µM; MIC [7, 8]: 8 µM (≈ 1.68 µg/mL); MIC [7, 9]: 64 µM (≈ 13.5 µg/mL); Kd [3]: 0.311 ± 0.0103 µM; kon [3]: 9.38e+06 M⁻¹ s⁻¹; koff ([3]; pH 7.4, SPR): 0.00292 s⁻¹; Ki [4]: 2.54 µM; Type of inhibition [4]: Reversible; Ki' [4]: 11.3 µM; viability at 72 h, 25 µg/mL [5]: 92.1%; viability at 72 h, 25 µg/mL [6]: 94.6%
13 | NC(=S)NC(=O)Cc1cccc(Cl)c1 [b7] | 63.6 ± 5.1 | 136.6 to 137.4 | fold decrease in potency relative to b19, extracted urease ([1]; ratio of IC50 values vs b19): 397 fold
14 | NC(=S)NC(=O)Cc1ccc([N+](=O)[O-])cc1 [b22] | 155 ± 16 | 199.1 to 200.9 | –
15 | COc1cccc(CC(=O)NC(N)=S)c1 [b5] | 75.8 ± 5.7 | 184.5 to 186.1 | –
16 | NC(=S)NC(=O)Cc1ccc(Cl)c(Cl)c1 [b3] | 63 ± 4.6 | 202.1 to 203.4 | –
17 | NC(=S)NC(=O)Cc1ccc(Cl)cc1 [b19] | 0.16 ± 0.05 | 184.1 to 186.6 | fold more potent than AHA, extracted urease ([1]; ratio of IC50 values vs AHA): 170 fold; IC50 [2]: 3.86 ± 0.1 µM; fold more potent than AHA, urease in intact cell ([2]; ratio of IC50 values vs AHA): 44 fold; MIC [7, 8]: 0.5 µM (≈ 0.114 µg/mL); MIC [7, 9]: 32 µM (≈ 7.32 µg/mL); Kd [3]: 0.0045 ± 0.00016 µM; koff ([3]; SPR): 1.73 × 10^–3 ± 2.57 × 10^–5 s^–1; kon [3]: 3.82e+06 M⁻¹ s⁻¹; koff ([3]; pH 7.4, SPR): 0.0016 s⁻¹; Ki [4]: 0.04 µM; Type of inhibition [4]: Reversible; preincubation-time dependence of urease inhibition ([4]; different preincubation times and concentrations): time-independent; Ki' [4]: 0.16 µM; inhibition mechanism ([4]; from Ki and Ki'): mixed competitive; viability at 72 h, 25 µg/mL [5]: > 93%; viability at 72 h, 25 µg/mL [6]: > 93%
18 | CC(=O)NO [AHA, acetohydroxamic acid, reference compound] | – | – | IC50 ([1]; read-out: IC50 Extracted urease): 27.2 ± 0.7 µM; IC50 ([2]; intact H. pylori cell suspension, read-out: IC50 Urease in intact cell): 171 ± 9 µM; MIC ([7]; pH=4.0, read-out: MIC pH=4.0): 16.0 µM (≈ 1.2 µg/mL); MIC ([7]; pH=7.0, read-out: MIC pH=7.0): >64.0 µM
19 | NC(=S)NC(=O)C(c1ccccc1)c1ccccc1 [b25] | 318 ± 24 | 169.5 to 172.7 | –
20 | NC(=S)NC(=O)Cc1cccc(C(F)(F)F)c1 [b9] | 136 ± 7 | 204.3 to 205.8 | –
21 | Cc1ccccc1CC(=O)NC(N)=S [b18] | 46.2 ± 1.8 | 135.6 to 137.1 | –
22 | NC(=S)NC(=O)Cc1ccc(Br)cc1 [b12] | 22.9 ± 0.4 | 174.9 to 176.2 | IC50 [2]: 189 ± 18 µM; viability at 72 h, 25 µg/mL [5]: 91.5%; viability at 72 h, 25 µg/mL [6]: 89.4%
23 | NC(=S)NC(=O)Cc1ccccc1F [b6] | 41.9 ± 2.5 | 157.2 to 159 | –
24 | NC(=S)NC(=O)Cc1ccccc1Br [b15] | 51.1 ± 4.4 | 179 to 179.5 | –
25 | NC(=S)NC(=O)Cc1ccccc1[N+](=O)[O-] [b20] | 183 ± 12 | 177.6 to 178.4 | –
